Measured values as given in US10590113B2, “6-hydroxy-4-oxo-1,4-dihydropyrimidine-5-carboxamides as APJ agonists” (priority 2016, dated 2020).

Each compound was assayed against T1, human APJ receptor (Homo sapiens, UniProt P35414) (assay: Intracellular cAMP Accumulation Assay (APJ hcAMP, HTRF)). Conditions: human APJ, cAMP accumulation; potency range class; read-out: hAPJ cAMP EC50 Potency range.
T1 construct: expressed in transfected cells; host or cells: HEK293
T1 sequence (P35414 1-380): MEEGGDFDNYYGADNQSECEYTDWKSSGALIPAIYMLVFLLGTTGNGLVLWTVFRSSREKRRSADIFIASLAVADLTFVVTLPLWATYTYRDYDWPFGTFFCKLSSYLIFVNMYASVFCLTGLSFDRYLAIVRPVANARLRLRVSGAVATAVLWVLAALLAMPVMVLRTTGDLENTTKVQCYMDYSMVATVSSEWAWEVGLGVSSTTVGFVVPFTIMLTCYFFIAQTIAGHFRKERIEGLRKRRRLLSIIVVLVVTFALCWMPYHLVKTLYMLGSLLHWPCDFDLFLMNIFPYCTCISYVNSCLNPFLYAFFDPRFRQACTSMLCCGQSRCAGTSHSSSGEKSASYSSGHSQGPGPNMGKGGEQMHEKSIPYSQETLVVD
Format: cell-based
Outline: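 Stably transfected HEK293 cells (5,000/well) incubated 30 min at room temperature with serially diluted compound, […] and 2 μM forskolin. cAMP measured by HTRF after 60 min with detection reagents, quantified against a cAMP standard curve; EC50 from variable-slope sigmoidal fit of inhibition of forskolin-stimulated cAMP.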

Compound | EC50 [nM]
CCc1cccc(CC)c1-n1c(-c2csc(C)n2)nc(=O)c(C(=O)N2CCC(c3ncc(Cl)cc3F)C2)c1O (single isomer, unassigned) [Example 296, 5-[3-(5-chloro-3-fluoropyridin-2-yl)pyrrolidine-1-carbonyl]-1-(2,6-diethylphenyl)-6-hydroxy-2-(2-methyl-1,3-thiazol-4-yl)-1,4-dihydropyrimidin-4-one] | 0.01 to 10
CCc1cccc(CC)c1-n1c(-c2csc(C(C)C)n2)nc(=O)c(C(=O)N2CCC(c3ncc(F)cc3F)C2)c1O (single isomer, unassigned) [Example 297, 1-(2,6-diethylphenyl)-5-[3-(3,5-difluoropyridin-2-yl)pyrrolidine-1-carbonyl]-6-hydroxy-2-[2-(propan-2-yl)-1,3-thiazol-4-yl]-1,4-dihydropyrimidin-4-one] | 0.01 to 10
CCc1cccc(CC)c1-n1c(-c2csc(C)n2)nc(=O)c(C(=O)N2CCC(c3ncc(F)cc3F)C2)c1O (single isomer, unassigned) [Example 298, 1-(2,6-diethylphenyl)-5-[3-(3,5-difluoropyridin-2-yl)pyrrolidine-1-carbonyl]-6-hydroxy-2-(2-methyl-1,3-thiazol-4-yl)-1,4-dihydropyrimidin-4-one] | 0.01 to 10
CCc1cccc(CC)c1-n1c(-c2csc(C(C)C)n2)nc(=O)c(C(=O)N2CCC(c3ccc(F)cn3)C2)c1O (single isomer, unassigned) [Example 300, 1-(2,6-diethylphenyl)-5-[3-(5-fluoropyridin-2-yl)pyrrolidine-1-carbonyl]-6-hydroxy-2-[2-(propan-2-yl)-1,3-thiazol-4-yl]-1,4-dihydropyrimidin-4-one] | 0.01 to 10

Further lines, results first:

EC50 [nM] | Compound
0.01 to 10 | CCc1cccc(CC)c1-n1c(-c2ccn(C(C)C)n2)nc(=O)c(C(=O)N2CCC(c3ncc(Cl)cc3F)C2)c1O (single isomer, unassigned) [Example 290, 5-[3-(5-chloro-3-fluoropyridin-2-yl)pyrrolidine-1-carbonyl]-1-(2,6-diethylphenyl)-6-hydroxy-2-[1-(propan-2-yl)-1H-pyrazol-3-yl]-1,4-dihydropyrimidin-4-one]
0.01 to 10 | CCc1cccc(CC)c1-n1c(-c2ccn(C(C)C)n2)nc(=O)c(C(=O)N2CCC(c3ncccc3F)C2)c1O (single isomer, unassigned) [Example 292, 1-(2,6-diethylphenyl)-5-[3-(3-fluoropyridin-2-yl)pyrrolidine-1-carbonyl]-6-hydroxy-2-[1-(propan-2-yl)-1H-pyrazol-3-yl]-1,4-dihydropyrimidin-4-one]
0.01 to 10 | CCn1ccc(-c2nc(=O)c(C(=O)N3CCC(c4ncc(F)cc4F)C3)c(O)n2-c2cccc(C(C)C)c2)n1 (single isomer, unassigned) [Example 293, 5-[3-(3,5-difluoropyridin-2-yl)pyrrolidine-1-carbonyl]-2-(1-ethyl-1H-pyrazol-3-yl)-6-hydroxy-1-[3-(propan-2-yl)phenyl]-1,4-dihydropyrimidin-4-one]
0.01 to 10 | CCn1ccc(-c2nc(=O)c(C(=O)N3CCC(c4ccccc4F)C3)c(O)n2-c2cccc(C(C)C)c2)n1 (single isomer, unassigned) [Example 294, 2-(1-ethyl-1H-pyrazol-3-yl)-5-[3-(2-fluorophenyl)pyrrolidine-1-carbonyl]-6-hydroxy-1-[3-(propan-2-yl)phenyl]-1,4-dihydropyrimidin-4-one]
0.01 to 10 | CCc1cccc(CC)c1-n1c(-c2ccn(C(C)C)n2)nc(=O)c(C(=O)N2CCC(c3ccccc3F)C2)c1O (single isomer, unassigned) [Example 295, 1-(2,6-diethylphenyl)-5-[3-(2-fluorophenyl)pyrrolidine-1-carbonyl]-6-hydroxy-2-[1-(propan-2-yl)-1H-pyrazol-3-yl]-1,4-dihydropyrimidin-4-one]
